Measurements taken from patent US12459951B2, “Compounds that interact with RAS superfamily proteins for treatment of cancers, inflammatory diseases, rasopathies, and fibrotic disease” (SHY Therapeutics, LLC, priority 2022, dated 2025).
Read-outs that look alike come from different tables or passages of the source.

Assays:
[1] = test system: NCI-H358 (expressing KRas G12C mutant); experiment: Proliferation Assay (Cell Viability Assay); format: cell-based; conditions: Homo sapiens
In short: (§1)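 Cells plated at 2000–5000/well overnight, then treated 2–4 days at 37 °C, 5% CO2 with compound at 10 μM single dose or serial dilutions for IC50, in 0.3% DMSO and 10% FBS. Viability read by CellTiter 96 Aqueous One (MTS); % proliferation inhibition calculated from raw data.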

[2] = test system: BT-549 (expressing wild type KRAS); experiment: Proliferation Assay (Cell Viability Assay); format: cell-based; conditions: Homo sapiens
In short: as §1

[3] = test system: GP2d (expressing KRas G12D mutant); experiment: Proliferation Assay (Cell Viability Assay); format: cell-based; conditions: Homo sapiens
In short: as §1

[4] = test system: A375 (wild type Kras); experiment: Proliferation Assay (Cell Viability Assay); format: cell-based; conditions: Homo sapiens, A-375
In short: as §1

[5] = test system: MM.1R (expressing wild type KRAS); experiment: Proliferation Assay (Cell Viability Assay); format: cell-based; conditions: Homo sapiens, read-out: MM.1R IC50 (nM) Multiple Myloma
In short: as §1

[6] = test system: PUMA expression; experiment: Cell-based Puma expression assay (western blot); design: species or system human
Experimental: Biological Example 4: Puma Expression and Caspases Activation Assay
Protocols for Cell-Based Puma Expression and Caspase Activation Assays
Cell lines: All human tumor-derived cancer cell lines were purchased from American Type Culture Collection. Human tumor-derived cancer cell lines Panc-1 (expressing KRas G12D mutant), MiaPaca-2 (expressing KRas G12C mutant), A549 (expressing KRas G12S mutant), and A375 (expressing wild type KRas) were grown in complete DMEM-High Glucose medium and NCI-H1975 (expressing wild type KRas), MM.1R (expressing wild type KRas) and IM.9 (expressing wild type KRas) were grown in RPMI1640 medium. Human tumor-derived cancer cell line BT-549 (expressing wild type KRas) was grown in RPMI1640 medium with 11.8U insulin. All mediums were supplemented with penicillin (100 U/mL), streptomycin (100 μg/mL), and 10% heat-inactivated FBS at 37° C. in a humidified incubator with 5% CO2.
Method: Cells were plated at 300,000 to 800,000 cells/well density in a 6-well plate in the presence of 10% FBS. The next day small molecules to be tested were added to the cells in the final concentration of 3 μM in the presence of 0.3% DMSO for 48 hours incubation at 37° C. For IC50 value determination, serial dilutions of compounds were added to cells under the same conditions. Following 48 hours of incubation cells were lysed with lysis buffer containing 1% Triton X-100, EDTA, and Halt™ Protease & Phosphatase Inhibitor Cocktail (Thermo Scientific). Protein concentration was assessed by BCA protein assay (Thermo Scientific). Increase expression of PUMA and active/cleaved forms of caspase 3, caspase 6 and caspase 9 were detected by western blot.
Western blot protocol: Equal amounts of protein (15-50 μg) were separated by SDS-PAGE and transferred to nitrocellulose membranes (Invitrogen by Thermo Fisher Scientific). The membrane was stained with Ponceau S Stain (Boston BioProducts) to verify uniform protein loading. Membranes were blocked with 10% milk and expression levels of PUMA was assessed by incubating overnight at 4° C. with the antibody PUMA (D30C10) from Cell Signaling Technology (#12450) and active/cleaved forms of caspase 3, caspase 6 and caspase 9 by incubating overnight at 4° C. with the following antibodies: cleaved caspase-3 (Asp175) (5A1E), cleaved caspase-6 (Asp162) and cleaved caspase-9 (Asp330) (D2D4) (all antibodies from Cell Signaling Technology). Then the membranes were incubated with HRP-conjugated secondary antibody (Jackson Immunoresearch, West Grove, PA). Bands were incubated in Amersham ECL Prime Western Blotting Detection Reagent (GE Healthcare) and visualized using the ChemiDoc MP imaging system (Bio-Rad).

[7] = Proliferation assay, NCI-H358, read-out: NCI-H358 IC50 (nM) NSCLC
[8] = BT-549, Proliferation assay, BT549, read-out: BT549 IC50 (nM) TNBC
[9] = Proliferation assay, read-out: GP2d IC50 (nM) Colorectal
[10] = Proliferation assay, A375, read-out: A375 IC50 (nM) Melanoma

| SMILES | IC50 ([1]; NCI-H358, NSCLC, KRas G12C, read-out: Proliferation assay IC50) | IC50 [1, 7] | IC50 [2, 8] | IC50 ([2]; BT-549, Breast (TNBC), KRas WT, read-out: Proliferation assay IC50) | IC50 [3, 9] | IC50 ([3]; colon, KRas G12D, read-out: Proliferation assay IC50) | IC50 ([4]; A375, melanoma, KRas WT, read-out: Proliferation assay IC50) | IC50 [4, 10] | IC50 [5] | Increased PUMA expression ([6]; A549, after 48 hours) | Increased PUMA expression ([6]; BT-549, after 48 hours) | Increased PUMA expression ([6]; MiaPaca2, after 48 hours) |
| --- | --- | --- | --- | --- | --- | --- | --- | --- | --- | --- | --- | --- |
| COc1ccnc(Nc2nc(-c3nccn3C)nn3cc(-c4ccn(C(C)C)n4)c(C)c23)c1 [Compound 58, 6-(1-Isopropyl-1H-pyrazol-3-yl)-N-(4-methoxypyridin-2-yl)-5-methyl-2-(1-methyl-1H-imidazol-2-yl)pyrrolo[2,1-f][1,2,4]triazin-4-amine] | < 150 nM | 10 to 50 nM | 1 to 10 nM | < 150 nM | 10 to 50 nM | < 150 nM | < 150 nM | 1 to 10 nM | < 1 nM | yes | yes | yes |
| COc1cc(Nc2nc(-c3nccn3C)nn3cc(-c4ccn(C)n4)c(C)c23)n[nH]1 [Compound 252, N-(5-Methoxy-1H-pyrazol-3-yl)-5-methyl-2-(1-methyl-1H-imidazol-2-yl)-6-(1-methyl-1H-pyrazol-3-yl)pyrrolo[2,1-f][1,2,4]triazin-4-amine] | – | 1 to 10 nM | 10 to 50 nM | – | 1 to 10 nM | – | – | > 50 nM | < 1 nM | – | – | – |
| Cc1cc(Nc2nc(-c3nccn3C)nn3cc(-c4ccn(C)n4)c(C)c23)n[nH]1 [Compound 255, 5-Methyl-2-(1-methyl-1H-imidazol-2-yl)-6-(1-methyl-1H-pyrazol-3-yl)-N-(5-methyl-1H-pyrazol-3-yl)pyrrolo[2,1-f][1,2,4]triazin-4-amine] | – | 1 to 10 nM | 1 to 10 nM | – | 1 to 10 nM | – | – | 10 to 50 nM | < 1 nM | – | – | – |
| Cc1[nH]nc(Nc2nc(-c3nccn3C)nn3cc(-c4ccn(C)n4)c(C)c23)c1C [Compound 267, N-(4,5-Dimethyl-1H-pyrazol-3-yl)-5-methyl-2-(1-methyl-1H-imidazol-2-yl)-6-(1-methyl-1H-pyrazol-3-yl)pyrrolo[2,1-f][1,2,4]triazin-4-amine] | – | 1 to 10 nM | 10 to 50 nM | – | 1 to 10 nM | – | – | 1 to 10 nM | < 1 nM | – | – | – |
